Laboratory results taken from PubChem BioAssay (NCI).
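GI50 marks 50% less growth. At the TGI there is no net growth.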

Key:
Test in all cases: DTP human tumour cell line panel, 384-well format
A498 renal = test system: A498 renal
NCI-H460 NSCLC = test system: NCI-H460 NSCLC
SK-OV-3 ovarian = test system: SK-OV-3 ovarian
OVCAR-8 ovarian = test system: OVCAR-8 ovarian
NCI-H522 lung = test system: NCI-H522 lung
OVCAR-5 ovarian = test system: OVCAR-5 ovarian
SF-295 CNS = test system: SF-295 CNS
SK-MEL-28 melanoma = test system: SK-MEL-28 melanoma
786-0 renal = test system: 786-0 renal
HOP-92 NSCLC = test system: HOP-92 NSCLC
NCI-H226 lung = test system: NCI-H226 lung
HL-60(TB) leukemia = test system: HL-60(TB) leukemia
T-47D breast = test system: T-47D breast
K-562 leukemia = test system: K-562 leukemia
MDA-MB-435 melanoma = test system: MDA-MB-435 melanoma
MDA-MB-231 breast = test system: MDA-MB-231 breast
CCRF-CEM leukemia = test system: CCRF-CEM leukemia
NCI-H23 lung = test system: NCI-H23 lung
MCF7 breast = test system: MCF7 breast
SNB-19 CNS = test system: SNB-19 CNS
HCT-15 colon = test system: HCT-15 colon
PC-3 prostate = test system: PC-3 prostate
SF-539 CNS = test system: SF-539 CNS
EKVX NSCLC = test system: EKVX NSCLC
NCI/ADR-RES ovarian = test system: NCI/ADR-RES ovarian
MALME-3M melanoma = test system: MALME-3M melanoma
MOLT-4 leukemia = test system: MOLT-4 leukemia
SK-MEL-5 melanoma = test system: SK-MEL-5 melanoma
HOP-62 NSCLC = test system: HOP-62 NSCLC
IGROV1 ovarian = test system: IGROV1 ovarian
UO-31 renal = test system: UO-31 renal
RPMI-8226 leukemia = test system: RPMI-8226 leukemia
HT29 colon = test system: HT29 colon
M14 melanoma = test system: M14 melanoma
SW-620 colon = test system: SW-620 colon
RXF 393 renal = test system: RXF 393 renal
HCC-2998 colon = test system: HCC-2998 colon
KM12 colon = test system: KM12 colon
SR leukemia = test system: SR leukemia
HS 578T breast = test system: HS 578T breast
BT-549 breast = test system: BT-549 breast
CAKI-1 renal = test system: CAKI-1 renal
ACHN renal = test system: ACHN renal
UACC-257 melanoma = test system: UACC-257 melanoma
LOX IMVI melanoma = test system: LOX IMVI melanoma
OVCAR-4 ovarian = test system: OVCAR-4 ovarian
DU-145 prostate = test system: DU-145 prostate
COLO 205 colon = test system: COLO 205 colon
NCI-H322M lung = test system: NCI-H322M lung
MDA-MB-468 breast = test system: MDA-MB-468 breast
SNB-75 CNS = test system: SNB-75 CNS
A549 NSCLC = test system: A549 NSCLC
UACC-62 melanoma = test system: UACC-62 melanoma
OVCAR-3 ovarian = test system: OVCAR-3 ovarian
TK-10 renal = test system: TK-10 renal
SF-268 CNS = test system: SF-268 CNS

`Cn1c(=O)n(-c2ccc(C(C)(C)C#N)cc2)c2c3cc(-c4cnc5ccccc5c4)ccc3ncc21` was tested, and the GI50 (A498 renal) was under 10 nM, the TGI (A498 renal) was 16.8 nM and the GI50 (NCI-H460 NSCLC) was under 10 nM. The TGI (NCI-H460 NSCLC) was 532 nM, the GI50 (SK-OV-3 ovarian) was under 10 nM and the TGI (SK-OV-3 ovarian) was 60.2 nM. It also gave a GI50 (OVCAR-8 ovarian) of under 10 nM, a TGI (OVCAR-8 ovarian) of over 100 µM and a GI50 (NCI-H522 lung) of 10.4 nM. For the same compound, the TGI (NCI-H522 lung) was 237 nM, the GI50 (OVCAR-5 ovarian) was 13.3 nM and the TGI (OVCAR-5 ovarian) was 298 nM. The GI50 (SF-295 CNS) was under 10 nM, the TGI (SF-295 CNS) was 31.5 nM and the GI50 (SK-MEL-28 melanoma) was 13.5 nM. It also gave a TGI (SK-MEL-28 melanoma) of 95 nM, a GI50 ([…]-0 renal) of under 10 nM and a TGI (786-0 renal) of 1190 nM. For the same compound, the GI50 (HOP-92 NSCLC) was under 10 nM, the TGI (HOP-92 NSCLC) was 64.2 nM and the GI50 (NCI-H226 lung) was under 10 nM. For the same compound, the TGI (NCI-H226 lung) was 62.3 nM, the GI50 (HL-60(TB) leukemia) was 104 nM and the TGI (HL-60(TB) leukemia) was 1110 nM. It also gave a GI50 (T-47D breast) of under 10 nM, a TGI (T-47D breast) of 19.7 nM and a GI50 (K-562 leukemia) of 13.9 nM. It also gave a TGI (K-562 leukemia) of 12.8 µM, a GI50 (MDA-MB-435 melanoma) of 17.6 nM and a TGI (MDA-MB-435 melanoma) of 492 nM. It also gave a GI50 (MDA-MB-231 breast) of under 10 nM, a TGI (MDA-MB-231 breast) of over 100 µM and a GI50 (CCRF-CEM leukemia) of under 10 nM. It also gave a TGI (CCRF-CEM leukemia) of 103 nM, a GI50 (NCI-H23 lung) of 34.5 nM and a TGI (NCI-H23 lung) of 723 nM. The GI50 (MCF7 breast) was under 10 nM, the TGI (MCF7 breast) was 185 nM and the GI50 (SNB-19 CNS) was 40.8 nM. It also gave a TGI (SNB-19 CNS) of over 100 µM, a GI50 (HCT-15 colon) of under 10 nM and a TGI (HCT-15 colon) of over 100 µM. For the same compound, the GI50 (PC-3 prostate) was under 10 nM, the TGI (PC-3 prostate) was 2110 nM and the GI50 (SF-539 CNS) was under 10 nM. It also gave a TGI (SF-539 CNS) of 707 nM, a GI50 (EKVX NSCLC) of under 10 nM and a TGI (EKVX NSCLC) of 85.1 nM. For the same compound, the GI50 (NCI/ADR-RES ovarian) was 29.7 nM, the TGI (NCI/ADR-RES ovarian) was 8.07 µM and the GI50 (MALME-3M melanoma) was under 10 nM. The TGI (MALME-3M melanoma) was 23 nM, the GI50 (MOLT-4 leukemia) was under 10 nM and the TGI (MOLT-4 leukemia) was 86 nM. It also gave a GI50 (SK-MEL-5 melanoma) of 12.7 nM, a TGI (SK-MEL-5 melanoma) of 41.1 nM and a GI50 (HOP-62 NSCLC) of under 10 nM. For the same compound, the TGI (HOP-62 NSCLC) was 191 nM, the GI50 (IGROV1 ovarian) was under 10 nM and the TGI (IGROV1 ovarian) was 28.6 nM. For the same compound, the GI50 (UO-31 renal) was 19.6 nM, the TGI (UO-31 renal) was over 100 µM and the GI50 (RPMI-8226 leukemia) was under 10 nM. The GI50 (HT29 colon) was 29.5 nM, the TGI (HT29 colon) was over 100 µM and the GI50 (M14 melanoma) was 13.6 nM. The TGI (M14 melanoma) was 599 nM, the GI50 (SW-620 colon) was 28.2 nM and the TGI (SW-620 colon) was over 100 µM. For the same compound, the GI50 (RXF 393 renal) was under 10 nM, the TGI (RXF 393 renal) was over 100 µM and the GI50 (HCC-2998 colon) was under 10 nM. The TGI (HCC-2998 colon) was 480 nM, the GI50 (KM12 colon) was 13.5 nM and the TGI (KM12 colon) was 1290 nM. For the same compound, the GI50 (SR leukemia) was under 10 nM, the TGI (SR leukemia) was 17.2 nM and the GI50 (HS 578T breast) was under 10 nM. It also gave a TGI (HS 578T breast) of 19.8 nM, a GI50 (BT-549 breast) of under 10 nM and a TGI (BT-549 breast) of 62.8 nM. The GI50 (CAKI-1 renal) was 12.7 nM, the TGI (CAKI-1 renal) was over 100 µM and the GI50 (ACHN renal) was under 10 nM. It also gave a TGI (ACHN renal) of over 100 µM, a GI50 (UACC-257 melanoma) of 21.4 nM and a TGI (UACC-257 melanoma) of 93.7 nM. The GI50 (LOX IMVI melanoma) was under 10 nM, the TGI (LOX IMVI melanoma) was 69.8 nM and the GI50 (OVCAR-4 ovarian) was under 10 nM. The TGI (OVCAR-4 ovarian) was 27.2 nM, the GI50 (DU-145 prostate) was under 10 nM and the TGI (DU-145 prostate) was over 100 µM. It also gave a GI50 (COLO 205 colon) of 21.5 nM, a TGI (COLO 205 colon) of 262 nM and a GI50 (NCI-H322M lung) of 12.1 nM. The TGI (NCI-H322M lung) was 2560 nM, the GI50 (MDA-MB-468 breast) was under 10 nM and the TGI (MDA-MB-468 breast) was 30.4 nM. The GI50 (SNB-75 CNS) was under 10 nM, the TGI (SNB-75 CNS) was 80.9 nM and the GI50 (A549 NSCLC) was under 10 nM. The TGI (A549 NSCLC) was 1330 nM, the GI50 (UACC-62 melanoma) was under 10 nM and the TGI (UACC-62 melanoma) was 101 nM. It also gave a GI50 (OVCAR-3 ovarian) of 12.3 nM, a TGI (OVCAR-3 ovarian) of 1700 nM and a GI50 (TK-10 renal) of 23.9 nM. It also gave a TGI (TK-10 renal) of 126 nM, a GI50 (SF-268 CNS) of 19.4 nM and a TGI (SF-268 CNS) of 3.36 µM.
